Source: PubChem BioAssay (NCI)
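Exposure lasted 48 hours, with cells grown in 96-well plates and compounds tested at five concentrations. Here, GI50 denotes the concentration required for 50% inhibition of growth. TGI marks complete inhibition of growth.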

Tests used:
Assay in all cases: NCI tumour cell line growth inhibition, 48 h
A549 NSCLC = test system: A549 NSCLC
BT-549 breast = test system: BT-549 breast
M14 melanoma = test system: M14 melanoma
MALME-3M melanoma = test system: MALME-3M melanoma
MDA-MB-231 breast = test system: MDA-MB-231 breast
NCI-H522 lung = test system: NCI-H522 lung
OVCAR-3 ovarian = test system: OVCAR-3 ovarian
SK-MEL-5 melanoma = test system: SK-MEL-5 melanoma
SN12C renal = test system: SN12C renal
U251 CNS = test system: U251 CNS

SMILES | TGI (A549 NSCLC) | TGI (BT-549 breast) | TGI (M14 melanoma) | TGI (MALME-3M melanoma) | TGI (MDA-MB-231 breast) | TGI (NCI-H522 lung) | TGI (OVCAR-3 ovarian) | TGI (SK-MEL-5 melanoma) | TGI (SN12C renal) | TGI (U251 CNS) | GI50 (A549 NSCLC) | GI50 (BT-549 breast) | GI50 (MALME-3M melanoma) | GI50 (NCI-H522 lung) | GI50 (SK-MEL-5 melanoma) | GI50 (SN12C renal) | GI50 (U251 CNS) | GI50 (M14 melanoma) | GI50 (MDA-MB-231 breast) | GI50 (OVCAR-3 ovarian)
CN(CCCNC(=O)c1nn(-c2ccccc2)c2c1Cc1ccccc1-2)CCCNC(=O)c1nn(-c2ccccc2)c2c1Cc1ccccc1-2 | 3.58 µM | 3.21 µM | 2.61 µM | 2.91 µM | 2.99 µM | 2.63 µM | 3.13 µM | 3.02 µM | 3.2 µM | 2.82 µM |  |  |  |  |  |  |  |  |  | 
Nc1csc(-c2scc3c2OCCO3)c1N | > 100 µM | 50.2 µM | 35.2 µM | 36 µM | 41.4 µM | 33.8 µM | 36.1 µM | 35.4 µM | 37.4 µM | 29.3 µM |  |  |  |  |  |  |  |  |  | 
COc1ccc2c3c([nH]c2c1)[C@H](C=C(C)C)N1C(=O)[C@@H]2CCCN2C(=O)[C@@H]1C3 | > 100 µM | > 100 µM | > 100 µM | > 100 µM | > 100 µM | > 100 µM | > 100 µM |  | > 100 µM | > 100 µM |  |  |  |  |  |  |  |  |  | 
CC(C)(C)COS(=O)OCC(C)(C)C | > 100 µM | > 100 µM | > 100 µM | > 100 µM | > 100 µM | > 100 µM | > 100 µM | > 100 µM | > 100 µM | > 100 µM |  |  |  |  |  |  |  |  |  | 
CCC1=C(CC2NCCc3cc(OC)c(OC)cc32)CC2c3ccccc3CCN2C1 (stereo unspecified) | > 100 µM | > 100 µM | 27.3 µM | 27.7 µM | 74.4 µM | 29.1 µM | > 100 µM | 28 µM | > 100 µM | 27.6 µM |  |  |  |  |  |  |  |  |  | 
CC(NC(=O)c1ccc(OP(=O)(OCc2ccc([N+](=O)[O-])o2)N(C)CCCCCl)cc1)c1ccc(OCC2CCCCC2)c(C(N)=O)c1 (stereo unspecified) | > 21.4 µM | 5.94 µM | 22.7 µM | 10.7 µM | 9.66 µM | 6.44 µM | 15.7 µM | 6.14 µM | 6.15 µM | > 32.3 µM |  |  |  |  |  |  |  |  |  | 
OC1CCSc2ccccc21 (stereo unspecified) | > 100 µM |  | > 100 µM | > 100 µM |  | > 100 µM | > 100 µM | > 100 µM | > 100 µM | > 100 µM |  |  |  |  |  |  |  |  |  | 
CS(=O)(=O)Nc1cccc(-c2ccc3ncnc(Nc4cncc(Cl)c4)c3c2)c1 | > 100 µM | 7.39 µM |  | 8.38 µM |  | 4.93 µM |  | 3.74 µM | > 100 µM | 4.18 µM | 2.5 µM | 2.34 µM | 2.34 µM | 1.75 µM | 1.75 µM | 2.63 µM | 1.64 µM |  |  | 
CN(CCCN1CCCC1)CCCN(C)C(=O)Cc1ccc(Cl)c(Cl)c1 | > 53.6 µM | 46.2 µM | 13.9 µM | 34.6 µM | 31.9 µM | 32.4 µM | > 88.4 µM | 36.3 µM | 70.2 µM | 29.7 µM |  |  |  |  |  |  |  |  |  | 
O=C(NN1CCCCC1)c1cc2cc(CCl)ccc2oc1=O | 48.5 µM | 38 µM | 49.4 µM | 24.8 µM | 38.6 µM | 22.7 µM | 39.3 µM | 33.7 µM | 38.7 µM | 31.6 µM |  |  |  |  |  |  |  |  |  | 
CC12OC(C(=O)C13CCC3)C1C(=O)c3c(O)ccc(O)c3C(=O)C12 (stereo unspecified) | 22.3 µM | 16.4 µM | 2.04 µM | 3.88 µM | 7.47 µM | 10.2 µM | 2.71 µM | 26.1 µM | 0.0729 µM | > 22.8 µM | 5.79 µM | 5.97 µM | 1.8 µM | 2.95 µM | 11 µM | 0.0256 µM | 2.47 µM | 0.669 µM | 2.41 µM | 0.62 µM
c1ccc(C[N+]23C(CC[C@H]2c2ccccc2)CC[C@H]3c2ccccc2)cc1 (stereo partly specified) | > 100 µM |  | 93 µM | > 100 µM | > 100 µM | > 100 µM | 90 µM | 19.1 µM | > 100 µM | > 100 µM |  |  |  |  |  |  |  |  |  | 
COc1cc(S(=O)(=O)Nc2ccc(-c3csc(/N=C\c4cccc(Oc5ccccc5)c4)n3)cc2)ccc1Cl | > 100 µM | 93.1 µM | > 100 µM | > 100 µM |  | 66.6 µM | > 100 µM | > 100 µM | 96.7 µM |  |  |  |  |  |  |  |  |  |  | 
COc1cc2cc[n+](C)c(Cc3ccc(Oc4cc(Cc5c6cc(OC)c(OC)cc6cc[n+]5C)ccc4OC)cc3)c2cc1OC | > 100 µM | > 100 µM | > 100 µM | > 100 µM | > 100 µM | > 100 µM | > 100 µM | > 100 µM | > 100 µM | > 100 µM |  |  |  |  |  |  |  |  |  | 
Clc1cccc(/C=c2\nc(-c3ccccc3)n3c2nc2ccccc23)c1 | > 100 µM | > 100 µM | > 100 µM | > 100 µM | > 100 µM |  | > 100 µM | > 100 µM | > 100 µM | > 100 µM |  |  |  |  |  |  |  |  |  | 
Cc1ccc(S(=O)(=O)Nc2cc(=O)[nH]c3c2CCC3)cc1 | > 100 µM | > 100 µM | > 100 µM | > 100 µM | > 100 µM | > 100 µM | > 100 µM | > 100 µM | > 100 µM | > 100 µM |  |  |  |  |  |  |  |  |  | 

SMILES | TGI (A549 NSCLC) | TGI (BT-549 breast) | TGI (M14 melanoma) | TGI (MALME-3M melanoma) | TGI (MDA-MB-231 breast) | TGI (NCI-H522 lung) | TGI (OVCAR-3 ovarian) | TGI (SK-MEL-5 melanoma) | TGI (SN12C renal) | TGI (U251 CNS) | GI50 (A549 NSCLC) | GI50 (BT-549 breast) | GI50 (MALME-3M melanoma) | GI50 (NCI-H522 lung) | GI50 (SK-MEL-5 melanoma) | GI50 (SN12C renal) | GI50 (U251 CNS) | GI50 (M14 melanoma) | GI50 (MDA-MB-231 breast) | GI50 (OVCAR-3 ovarian)
Cc1ccc([N+](=O)[O-])cc1S(=O)(=O)Nc1ccc(C2=NN(C(=O)c3ccccc3)C(c3ccccc3O)C2)cc1 (stereo unspecified) | 74.4 µM | 30.7 µM | 48.6 µM | 31.5 µM | 37.7 µM | 28.6 µM | 56.8 µM | 34.7 µM | 33 µM | 80.1 µM |  |  |  |  |  |  |  |  |  | 
CN(CCc1ccccn1)c1ccc2c(c1)Cc1ccccc1-2 | > 100 µM | 46.8 µM | 94.3 µM | 93.7 µM | 21.9 µM | 62.1 µM | > 100 µM | 31.3 µM | > 100 µM | 22.6 µM |  |  |  |  |  |  |  |  |  | 
C=C(CN(C)C)C(=O)c1ccccc1Cl | > 100 µM |  | 33.3 µM | 31.7 µM |  | 15.6 µM | 34.9 µM | 57.8 µM | 42.3 µM | 98.4 µM |  |  |  |  |  |  |  |  |  | 
CCCCSCCC(N)P(=O)(O)O (stereo unspecified) | > 100 µM |  | > 100 µM |  | > 100 µM | > 100 µM | > 100 µM | > 100 µM | > 100 µM | > 100 µM |  |  |  |  |  |  |  |  |  | 
Oc1ccc(Cl)cc1C1=Nn2c(COc3ccc4c(c3)CCCC4)nnc2SC1 | 92.9 µM | 34.6 µM | 29.5 µM | > 100 µM | 34.2 µM | 21.6 µM | 29.8 µM | 19 µM | 19.9 µM | 35.3 µM |  |  |  |  |  |  |  |  |  | 
O=C1CNc2cc(N3CCCCC3)ccc2N1 | > 100 µM | > 100 µM | > 100 µM | > 100 µM |  | > 100 µM | > 100 µM | > 100 µM | > 100 µM | > 100 µM |  |  |  |  |  |  |  |  |  | 
CN(CCN1C(=O)c2cccc3cccc(c23)C1=O)CCN1C(=O)c2cccc3cccc(c23)C1=O | > 100 µM | > 100 µM | > 100 µM | > 100 µM | 33.6 µM | 40.6 µM | 74.8 µM | > 100 µM | > 100 µM | 24.7 µM |  |  |  |  |  |  |  |  |  | 
COc1cc(/C=C2\CC3C4CC[C@H]5C[C@@H](O)CC[C@]5(C)C4CC[C@]3(C)\C2=N\O)cc(OC)c1OC (stereo partly specified) | > 100 µM | 42.1 µM | 37.3 µM | 42.8 µM | 59.7 µM | 94.8 µM | 11 µM | 30.7 µM | 41.9 µM | 30.9 µM |  |  |  |  |  |  |  |  |  | 
O=S(C(c1ccccc1)=P(c1ccccc1)(c1ccccc1)c1ccccc1)c1ccc(Cl)cc1 (stereo unspecified) |  |  | > 100 µM |  | 70 µM | 38.6 µM | > 100 µM | 27 µM |  | > 100 µM |  |  |  |  |  |  |  |  |  | 
CS(=O)(=O)Nc1ccc(NCc2cnc3ccc4[nH]cccc4c23)cc1 | > 100 µM | 73.2 µM | 46.4 µM | 46.6 µM | 97.4 µM | 42.3 µM | 92.9 µM | 28.8 µM | 88.8 µM | 68.9 µM |  |  |  |  |  |  |  |  |  | 
O=C1/C(=C/c2ccc([N+](=O)[O-])cc2)Sc2scc(-c3cccc([N+](=O)[O-])c3)[n+]21 | 56.7 µM | 18.7 µM | 17.5 µM | 3.22 µM | 16.5 µM | 2.69 µM | 15.2 µM | 18.6 µM | 17.3 µM | 25.6 µM |  |  |  |  |  |  |  |  |  | 
C#C[C@]1(O)[C@@H](CO)O[C@@H](n2ccc(=O)[nH]c2=O)[C@@H]1O | > 100 µM |  | 6.77 µM | 7.62 µM | 3.77 µM | 1.64 µM |  | 13 µM |  | > 100 µM |  |  |  |  |  |  |  |  |  | 
NC(N)=N/N=C/c1c(-c2cccs2)nc2n1CCS2 | > 100 µM | 44.8 µM |  |  | 33.4 µM | > 100 µM | 32.7 µM | 29.1 µM | 32.4 µM | 30.1 µM | > 100 µM | 21.4 µM |  | 38.2 µM | 15.6 µM | 12.5 µM | 16.6 µM |  | 13.7 µM | 15.5 µM
CCOC(=O)c1cccc(N=Nc2ncc(/C=C/C(=O)OC)[nH]2)c1 | > 100 µM | > 100 µM | 76 µM | 70.3 µM | > 100 µM | 47.2 µM | 71.1 µM | 30.1 µM | 48.5 µM | > 100 µM |  |  |  |  |  |  |  |  |  | 
COc1ccc(-n2nc(C(=O)c3ccccc3)c3nn4c(=O)cc(-c5ccccc5)nc4nc32)cc1 | > 100 µM | > 100 µM | > 100 µM | > 100 µM | > 100 µM | 81.2 µM | > 100 µM | > 100 µM | > 100 µM | > 100 µM | 39.2 µM | 55.1 µM | 34.5 µM | 23.1 µM | 41.7 µM | 41.7 µM | 39.2 µM | 30.3 µM | 28.7 µM | 30.7 µM
